Measured values as given in patent US8734837B2, “Enhancement of development of oviparous species by in ovo feeding of enteric modulators” (North Carolina State University, priority 2000, dated 2014).

Assays:
Assay type in all cases: in vivo
[1] = Hatchability rate of turkey poults by HMB dosage injected in ovo (Example 10, FIG. 6)
Method: (§1) Three hundred commercial turkey eggs were stored for three weeks in a cooler at 55° F. and then placed in an egg incubator. After 24 days of incubation, eggs identified as fertile by candling the eggs were randomly assigned to 5 groups of 50 eggs. Each group of 50 eggs was then injected into the air cell at a depth of 0.25 inches with a 0.10 ml saline (0.89% NaCl) solution containing 0, 0.1, 1.0, 10.0, and 100.0 milligrams of Ca-HMB.
(§2) After injection, the eggs were placed in hatching baskets such that each treatment was equally represented in each location of the incubator. Hatched poults were recovered from the incubator at 28 days of incubation and the number of hatched poults per treatment group recorded. The hatched poults were then sacrificed and blood glucose was determined in accordance with known techniques (see Donaldson and Christensen, Comp. Biochem. Physiol. 98A, 347-350 (1991)). Livers were removed and glycogen content of each liver was determined by known techniques (see Dreiling et al., Meat Sci. 20, 167-177 (1987)).

[2] = Liver glycogen of turkey poults by HMB dosage injected in ovo (Example 10, FIG. 7); settings: turkey poults at hatch; all HMB dosage levels (0.1-100.0 milligrams)
Method: as §1, §2

[3] = Plasma glucose of turkey poults by HMB dosage injected in ovo (Example 10, FIG. 8); settings: turkey poults at hatch
Method: as §1, §2

CC(C)(O)CC(=O)O [HMB, beta-hydroxy-beta-methylbutyrate]
Hatchability rate ([1]; turkey eggs stored 3 weeks, 0.1 and 1.0 milligrams HMB in 0.1 ml saline into air cell at 24 days of incubation, control 72.3%): 81.6% | Hatchability rate (in words) ([1]; turkey eggs, HMB injected above 1.0 milligrams): hatchability rate decreased | Liver glycogen content, increase compared with the control treatment [2]: about 40% | Plasma glucose concentration (in words) ([3]; 0.1 milligram HMB dosage): significantly increased plasma glucose concentration | Plasma glucose concentration (in words) ([3]; other HMB dosage levels (1.0, 10.0, 100.0 milligrams)): no significant effect on plasma glucose
